The numbers were not newly measured in patent publication US6689400B2, “Process of obtaining compositions of stable lutein and lutein derivatives” (Sabinsa Corporation, priority 2001, dated 2004), which cites them from elsewhere.

The conditions of data set [1]: exposure to white fluorescent light, carefully controlled conditions.
For data set [2] the following is noted: room temperature or higher.

Molecules are shown by their SMILES.

On to `CC1=C[C@H](O)CC(C)(C)[C@H]1/C=C/C(C)=C/C=C/C(C)=C/C=C/C=C(C)/C=C/C=C(C)/C=C/C1=C(C)C[C@@H](O)CC1(C)C` [lutein], for which the degradation of lutein in data set [1] is reported as 0.8-10.7 % per day. Moreover, in data set [2], the stability entry is on record as “not stable”.
